Reference: patent US8426420B2, “Heterocyclic pyrazole-carboxamidesas P2Y12 antagonists” (Sanofi, priority 2007, dated 2013)
pIC50: −log10 of the molar value.

System: human platelet rich plasma
Test: Inhibition of human platelet aggregation, 96-well assay
Assay type: cell-based
Procedure: Inhibition of Human Platelet Aggregation
Alternatively to a binding assay which measures a compound's ability to bind to the P2Y12 receptor, the effect on cellular function was also determined. This ability of the compound was evaluated in two platelet aggregation assays: in 96-well plates and with the “Born”-method using single cuvettes.
Whole blood was collected from healthy volunteers using 20 ml syringes containing 2 ml of ACD-A Aqua-Citrat-Dextrose-A, Fresenius). The anticoagulated whole blood was transferred into 15 ml polypropylene conical tubes (10 ml per tube). The tubes were centrifuged for 15 minutes at 150×g at RT without using the centrifuge brake. This procedure leads to a pellet of cellular components and a supernatant of platelet rich plasma (PRP). The PRP layer was collected from each tube and pooled for each donor. To avoid carry over of cellular components following centrifugation, approximately 5 ml of PRP was left in the tube. The platelet concentration was determined using a Coulter Counter.
The 15 ml tubes containing the pellet of cellular components were centrifuged again for 10 minutes at 1940×g. This pelleted out most particulate blood constituents remaining, leaving a layer of Platelet Poor Plasma (PPP). The PPP was collected for each donor. The PRP layer, previously set aside, was diluted with PPP to a final concentration of approximately 3×E8 platelets/ml with the PPP.
The human platelet aggregation assay is performed in 96-well plates using a microtiter plate reader (SpectraMax Plus 384 with SoftMax Pro software from Molecular Devices). In the plate 15 μl of test compound at 10× final concentration in NaCl is mixed with 120 μl fresh PRP and incubated for 5 minutes. Following that incubation period, 15 μl of 40 μM ADP is added to the reaction mix. This addition of ADP is sufficient to induce aggregation in the absence of an inhibitor. The plates are then transferred to the microplate reader and aggregation is measured over 20 minutes. The instrument settings include:
Absorbance at 650 nm, run time 20 minutes with readings in 1-minute intervals and 50 seconds shaking between readings all performed at 37° C.

[1] = ADP-induced aggregation, human platelet rich plasma, 96-well plates, AUC of absorbance over 20 minutes

Molecule | pIC50 (Homo sapiens, Platelet, 20 min) | pIC50 [1]
4-[2-({5-[2-((S)-2-Cyclobutylcarbamoyl-pyrrolidin-1-yl)-2-oxo-ethoxy]-1-phenyl-1H-pyrazole-3-carbonyl}-amino)-acetyl]-piperazine-1-carboxylic acid 2-methoxy-ethyl ester [Example 254] |  | 6.12
CCOC(=O)N1CCN(C(=O)[C@H](CCC(=O)O)NC(=O)c2cc(OCC(=O)N3CCC[C@H]3C(=O)NC)n(-c3ccccc3)n2)CC1 [Example 7, 4-{(S)-4-Carboxy-2-[(5-{2-[(S)-2-(2-methylcarbamoyl)-pyrrolidin-1-yl]-2-oxo-ethoxy}-1-phenyl-1H-pyrazole-3-carbonyl)-amino]-butyryl}-piperazine-1-carboxylic acid ethyl ester] |  | 5.84
CCNC(=O)[C@@H]1CCCN1C(=O)COc1cc(C(=O)N[C@@H](CCC(=O)O)C(=O)N2CCN(C(=O)OCC)CC2)nn1-c1ccccc1 [Example 8, 4-{(S)-4-Carboxy-2-[(5-{2-[(S)-2-ethylcarbamoyl-pyrrolidin-1-yl]-2-oxo-ethoxy}-1-phenyl-1H-pyrazole-3-carbonyl)-amino]-butyryl}-piperazine-1-carboxylic acid ethyl ester] | 6.33 | 
CCOC(=O)N1CCN(C(=O)[C@H](CCC(=O)O)NC(=O)c2cc(OCC(=O)N3CCC[C@H]3C(=O)N3CCCC3)n(-c3ccccc3)n2)CC1 [Example 17, 4-{(S)-4-Carboxy-2-[(5-{2-oxo-2-[(S)-2-(pyrrolidine-1-carbonyl)-pyrrolidin-1-yl]-ethoxy}-1-phenyl-1H-pyrazole-3-carbonyl)-amino]-butyryl}-piperazine-1-carboxylic acid ethyl ester] | 6.22 | 
CCOC(=O)N1CCN(C(=O)[C@H](CCC(=O)O)NC(=O)c2cc(OCC(=O)N3CCN(C(C)=O)CC3)n(-c3ccccc3)n2)CC1 [Example 27, 4-[(S)-2-({5-[2-(4-Acetyl-piperazin-1-yl)-2-oxo-ethoxy]-1-phenyl-1H-pyrazole-3-carbonyl}-amino)-4-carboxy-butyryl]-piperazine-1-carboxylic acid ethyl ester] | 6.12 | 
CCOC(=O)N1CCN(C(=O)[C@H](CCC(=O)O)NC(=O)c2cc(OCC(=O)N3CC[C@H]3C(=O)NC3CC3)n(-c3ccccc3)n2)CC1 [Example 40, 4-[(S)-4-Carboxy-2-({5-[2-((S)-2-cyclopropylcarbamoyl-azetidin-1-yl)-2-oxo-ethoxy]-1-phenyl-1H-pyrazole-3-carbonyl}-amino)-butyryl]-piperazine-1-carboxylic acid ethyl ester] | 6.07 | 
CCOC(=O)N1CCN(C(=O)[C@H](CC(=O)O)NC(=O)c2cc(OCC(=O)N3CCC[C@H]3C(=O)NCCF)n(-c3ccccc3)n2)CC1 [Example 59, 4-{(S)-3-Carboxy-2-[(5-{2-[(S)-2-(2-fluoro-ethylcarbamoyl)-pyrrolidin-1-yl]-2-oxo-ethoxy}-1-phenyl-1H-pyrazole-3-carbonyl)-amino]-propionyl}-piperazine-1-carboxylic acid ethyl ester] | 6.20 | 
CCOC(=O)N1CCN(C(=O)[C@H](CCNC(=O)C(F)(F)F)NC(=O)c2cc(OCC(=O)N3CCC[C@H]3C(=O)NC3CCC3)n(-c3ccccc3)n2)CC1 [Example 98, 4-[(S)-2-({5-[2-((S)-2-Cyclobutylcarbamoyl-pyrrolidin-1-yl)-2-oxo-ethoxy]-1-phenyl-1H-pyrazole-3-carbonyl}-amino)-4-(2,2,2-trifluoro-acetylamino)-butyryl]-piperazine-1-carboxylic acid ethyl ester] | 5.74 | 
O=C(O)CC[C@H](NC(=O)c1cc(OCC(=O)N2CCC[C@H]2C(=O)NC2CCC2)n(-c2ccccc2)n1)C(=O)N1CCN(C(=O)c2ccccc2)CC1 [Example 104, (S)-5-(4-Benzoyl-piperazin-1-yl)-4-({5-[2-((S)-2-cyclobutylcarbamoyl-pyrrolidin-1-yl)-2-oxo-ethoxy]-1-phenyl-1H-pyrazole-3-carbonyl}-amino)-5-oxo-pentanoic acid] | 5.91 | 
CCCCOC(=O)NC1CCN(C(=O)[C@H](CCC(=O)O)NC(=O)c2cc(OCC(=O)N3CCC[C@H]3C(=O)NC3CCC3)n(-c3ccccc3)n2)C1 (stereo partly drawn) [Example 108, (S)-5-(3-Butoxycarbonylamino-pyrrolidin-1-yl)-4-({5-[2-((S)-2-cyclobutylcarbamoyl-pyrrolidin-1-yl)-2-oxo-ethoxy]-1-phenyl-1H-pyrazole-3-carbonyl}-amino)-5-oxo-pentanoic acid] | 5.73 | 
CCOC(=O)N1CCN(C(=O)[C@H](CCC(=O)O)NC(=O)c2cc(OCC(=O)N3CCC[C@H]3C(=O)NC3CCC3)n(-c3ccccc3)n2)[C@@H](C)C1 [Example 153, (S)-4-[(S)-4-Carboxy-2-({5-[2-((S)-2-cyclobutylcarbamoyl-pyrrolidin-1-yl)-2-oxo-ethoxy]-1-phenyl-1H-pyrazole-3-carbonyl}-amino)-butyryl]-3-methyl-piperazine-1-carboxylic acid ethyl ester] | 6.37 | 
O=C(O)CC[C@H](NC(=O)c1cc(OCC(=O)N2CCC[C@H]2C(=O)NC2CCC2)n(-c2ccccc2)n1)C(=O)N1CCN(C(=O)Oc2ccccc2)CC1 [Example 156, 4-[(S)-4-Carboxy-2-({5-[2-((S)-2-cyclobutylcarbamoyl-pyrrolidin-1-yl)-2-oxo-ethoxy]-1-phenyl-1H-pyrazole-3-carbonyl}-amino)-butyryl]-piperazine-1-carboxylic acid phenyl ester] | 5.97 | 

Further molecules by rising pIC50 (Homo sapiens, Platelet, 20 min), results first:

pIC50 (Homo sapiens, Platelet, 20 min) | Molecule | pIC50 [1]
6.48 | CCOC(=O)N1CCN(C(=O)[C@H](CCC(=O)O)NC(=O)c2cc(O[C@@H](C)C(=O)N3CCC[C@H]3C(=O)NC3CC3)n(-c3ccccc3)n2)CC1 [Example 66, 4-[(S)-4-Carboxy-2-({5-[(S)-2-((S)-2-cyclopropylcarbamoyl-pyrrolidin-1-yl)-1-methyl-2-oxo-ethoxy]-1-phenyl-1H-pyrazole-3-carbonyl}-amino)-butyryl]-piperazine-1-carboxylic acid ethyl ester] | 
6.59 | CCOC(=O)N1CCN(C(=O)[C@H](CCC(=O)O)NC(=O)c2cc(O[C@@H](C)C(=O)N3CCC[C@H]3C(=O)NCC(F)(F)F)n(-c3ccccc3)n2)CC1 [Example 70, 4-[(S)-4-Carboxy-2-({5-[(S)-2-((S)-2-(2,2,2-trifluoroethylcarbamoyl)-pyrrolidin-1-yl)-1-methyl-2-oxo-ethoxy]-1-phenyl-1H-pyrazole-3-carbonyl}-amino)-butyryl]-piperazine-1-carboxylic acid ethyl ester] | 
6.66 | CCOC(=O)N1CCN(C(=O)[C@H](CCC(=O)O)NC(=O)c2cc(OCC(=O)N3CCC[C@H]3C(=O)N(C)C3CCC3)n(-c3ccccc3)n2)CC1 [Example 22, 4-{(S)-4-Carboxy-2-[(5-{2-[(S)-2-(cyclobutyl-methyl-carbamoyl)-pyrrolidin-1-yl]-2-oxo-ethoxy}-1-phenyl-1H-pyrazole-3-carbonyl)-amino]-butyryl}-piperazine-1-carboxylic acid ethyl ester] | 
6.68 | CCOC(=O)N1CCN(C(=O)[C@H](CCC(=O)O)NC(=O)c2cc(OCC(=O)N3CCC[C@H]3C(=O)N3CCC(F)(F)CC3)n(-c3ccccc3)n2)CC1 [Example 19, 4-{(S)-4-Carboxy-2-[(5-{2-[(S)-2-(4,4-difluoro-piperidine-1-carbonyl)-pyrrolidin-1-yl]-2-oxo-ethoxy}-1-phenyl-1H-pyrazole-3-carbonyl)-amino]-butyryl}-piperazine-1-carboxylic acid ethyl ester] | 
6.72 | CCOC(=O)N1CCN(C(=O)[C@H](CCC(=O)O)NC(=O)c2cc(O[C@H](C)C(=O)N3CCC[C@H]3C(=O)N3CCCC3)n(-c3ccccc3)n2)CC1 [Example 64, 4-{(S)-4-Carboxy-2-[(5-{(R)-1-methyl-2-oxo-2-[(S)-2-(pyrrolidine-1-carbonyl)-pyrrolidin-1-yl]-ethoxy}-1-phenyl-1H-pyrazole-3-carbonyl)-amino]-butyryl}-piperazine-1-carboxylic acid ethyl ester] | 
7.15 | CCOC(=O)N1CCN(C(=O)[C@H](CCC(=O)O)NC(=O)c2cc(O[C@@H](C)C(=O)N3CCC[C@H]3C(=O)NCC3CC3)n(-c3ccccc3)n2)CC1 [Example 68, 4-[(S)-4-Carboxy-2-({5-[(S)-2-((S)-2-cyclopropylmethylcarbamoyl-pyrrolidin-1-yl)-1-methyl-2-oxo-ethoxy]-1-phenyl-1H-pyrazole-3-carbonyl}-amino)-butyryl]-piperazine-1-carboxylic acid ethyl ester] | 
7.22 | CCOC(=O)N1CCN(C(=O)[C@H](CC(=O)O)NC(=O)c2cc(OCC(=O)N3CCC[C@H]3C(=O)NC3CC3)n(-c3ccccc3)n2)CC1 [Example 56, 4-[(S)-3-Carboxy-2-({5-[2-((S)-2-cyclopropylcarbamoyl-pyrrolidin-1-yl)-2-oxo-ethoxy]-1-phenyl-1H-pyrazole-3-carbonyl}-amino)-propionyl]-piperazine-1-carboxylic acid ethyl ester] | 
